Measured values from patent publication US20240344241A1, “PROTEINACEOUS MOLECULES AND USES THEREFOR” (THE UNIVERSITY OF QUEENSLAND, priority 2021, published 2024).
Bridge positions count the residues as written; N and C are the ends. Ends that are not written are not given here. Peptide text beside a SMILES is read from it.

What was measured:
Stability in human serum = assay: Stability in human serum
Protocol: Briefly, peptides were incubated at a final concentration of 30 μM in human serum (human male AB serum, Sigma-Aldrich) at 37° C. for 0, 1, 12 and 24 h. The reaction was stopped at designated times, with the serum proteins being denatured by addition of two volumes of acetonitrile (v/v). The samples were then spun at 17,000 g for 10 min and the amount of peptide in the supernatant was quantified using analytical HPLC. The percentage of peptide remaining at 1, 12 and 24 h was calculated using the area of the serum-treated peptide peak from 0 h as 100%.

bovine trypsin = target: T1, bovine trypsin (Bos taurus, UniProt P00760); assay: Surface plasmon resonance binding to trypsin
T1 sequence (P00760 24-246): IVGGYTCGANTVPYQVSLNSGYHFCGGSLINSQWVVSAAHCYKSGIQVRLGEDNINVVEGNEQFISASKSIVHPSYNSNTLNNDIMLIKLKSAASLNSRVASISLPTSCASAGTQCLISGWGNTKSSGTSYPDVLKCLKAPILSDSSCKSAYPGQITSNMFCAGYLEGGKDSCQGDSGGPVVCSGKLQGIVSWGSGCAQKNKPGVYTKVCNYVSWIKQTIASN

Human β-FXIIa = target: T2, Human β-FXIIa (Homo sapiens, UniProt P00748); assay: FXIIa competitive inhibition assay, colorimetric substrate Ac-QRFR-pNA; assay type: biochemical
T2 construct: Human β-FXIIa was obtained from Molecular Innovations, together with human FXa, human FXIa, human α-thrombin, and human plasma kallikrein; purchased Molecular Innovations; host or cells: purified from human plasma
T2 sequence (P00748 373-615 limits assumed, other chains not shown): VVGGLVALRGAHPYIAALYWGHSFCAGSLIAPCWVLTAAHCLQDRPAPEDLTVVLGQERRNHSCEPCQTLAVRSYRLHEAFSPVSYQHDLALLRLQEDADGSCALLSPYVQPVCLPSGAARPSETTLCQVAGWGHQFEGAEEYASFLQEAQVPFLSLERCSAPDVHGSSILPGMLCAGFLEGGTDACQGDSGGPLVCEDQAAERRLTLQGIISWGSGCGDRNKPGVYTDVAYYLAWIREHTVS
Outline: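 Assays run three times in duplicate at pH 8.0 (Tris-HCl, NaCl, CaCl2, Triton X-100). Rates of pNA or MCA release after enzyme–inhibitor equilibration at room temperature were fitted by non-linear regression to the Morrison equation for Ki.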

[1] = target: T3, biotinylated human β-FXIIa (Homo sapiens, UniProt P00748); assay: Surface plasmon resonance binding to FXIIa
T3 construct: purchased Molecular Innovations
T3 sequence (P00748 373-615 limits assumed, other chains not shown): as above
Protocol: Binding kinetics of each peptide towards biotinylated human β-FXIIa (Molecular Innovations) and non-labelled zymogen FXII (Haematologic Technologies) were determined using a Biacore T200 machine (Cytiva). For β-FXIIa binding measurements, the running buffer was HBS-EP+(10 mM HEPES, 150 mM NaCl, 3 mM EDTA and 0.05% (v/v) surfactant P20, pH 7.4). Biotinylated β-FXIIa was immobilized on a Sensor Chip CAP (Cytiva) using Biotin CAPture Reagent (Cytiva). A series of concentrations of each peptide were injected as analyte and the binding kinetics were modelled using a 1:1 binding model. Regeneration of sensor surface was performed after each measurement cycle. For FXII binding measurements, the running buffer was PBST (137 mM NaCl, 2.7 mM KCl, 10 mM Na2HPO4, 1.8 mM KH2PO4, 0.05% Tween-20). Non-labelled FXII was immobilized on a Sensor Chip CM5 (Cytiva) using Amine Coupling Kit (Cytiva), achieving a final immobilization level of 2500 RU. Each peptide was flowed through immobilized FXII at 5 μM for 60 s and allowed dissociation for 150 s.

Human FXa = target: T4, Human FXa (Homo sapiens, UniProt P00742); assay: FXa inhibition assay; assay type: biochemical
T4 construct: Human β-FXIIa was obtained from Molecular Innovations, together with human FXa, human FXIa, human α-thrombin, and human plasma kallikrein; purchased Molecular Innovations; host or cells: purified from human plasma
T4 sequence (P00742 235-488 limits assumed): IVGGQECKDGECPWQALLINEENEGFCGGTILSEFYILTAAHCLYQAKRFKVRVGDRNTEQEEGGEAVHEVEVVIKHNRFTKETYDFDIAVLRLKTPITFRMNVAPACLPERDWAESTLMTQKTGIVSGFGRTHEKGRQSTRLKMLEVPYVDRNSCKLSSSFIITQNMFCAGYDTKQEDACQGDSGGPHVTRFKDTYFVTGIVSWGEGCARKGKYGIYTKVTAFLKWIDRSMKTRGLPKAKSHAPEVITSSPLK
T4 sequence (P00742 41-179 partner limits assumed): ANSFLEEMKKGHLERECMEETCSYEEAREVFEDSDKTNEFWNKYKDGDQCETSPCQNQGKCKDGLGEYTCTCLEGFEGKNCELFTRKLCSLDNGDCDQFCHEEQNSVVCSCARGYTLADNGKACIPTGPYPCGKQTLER
Protocol: (§1) The activity of acyclic and cyclic MCoFx1-5 and analogues thereof was assessed in competitive inhibition assays, as previously described in Swedberg et al. (2016) J Med Chem, 59: 7287-7292. Human β-FXIIa was obtained from Molecular Innovations, together with human FXa, human FXIa, human α-thrombin, and human plasma kallikrein. Human cationic trypsin and human plasmin were obtained from Sigma-Aldrich, and recombinant human matriptase was sourced from R&D Systems. Recombinant human urokinase (uPA) and recombinant human tissue plasminogen activator (tPA) were expressed in Expi293 cells, as previously described in Li et al. (2019) Chembiochem, 20: 46-50. FXIIa inhibition assays were performed in clear, low-binding 96-well plates using 250 μL (final volume) of assay buffer (0.1 M Tris-HCl pH 8.0, 0.1 M NaCl, 10 mM CaCl2 and 0.005% Triton X-100). Inhibitors were serially diluted and incubated with 10 nM FXIIa at room temperature to reach equilibrium. After adding 100 μM Ac-QRFR-pNA substrate (KM=162 μM), enzymatic activity was measured by monitoring release of the pNA moiety using a TECAN infinite M1000 Pro plate reader (A=405 nm, reading interval, 10 s; assay time course, 7 min). Assays were conducted in three times in duplicate. Substrate kinetic constants (Michaelis-Menten) and inhibition constants (Morrison K) were determined by non-linear regression using Prism 7 (GraphPad). Selectivity assays with off-target proteases were performed in a similar way, except that different concentrations of enzyme and substrate were used, as indicated in Table 16. For assays using a fluorescent substrate (peptide-4-methylcoumaryl-7-amide, MCA), black low-binding 96-well plates were used and activity was measured using a TECAN infinite M1000 pro plate reader (λex 360 nm, λem 460 nm, reading interval, 30 s; assay time course, 5-30 min).

Human FXIa = target: T5, Human FXIa (Homo sapiens, UniProt P03951); assay: FXIa inhibition assay; assay type: biochemical
T5 construct: Human β-FXIIa was obtained from Molecular Innovations, together with human FXa, human FXIa, human α-thrombin, and human plasma kallikrein; purchased Molecular Innovations; host or cells: purified from human plasma
T5 sequence (P03951 388-625 limits assumed): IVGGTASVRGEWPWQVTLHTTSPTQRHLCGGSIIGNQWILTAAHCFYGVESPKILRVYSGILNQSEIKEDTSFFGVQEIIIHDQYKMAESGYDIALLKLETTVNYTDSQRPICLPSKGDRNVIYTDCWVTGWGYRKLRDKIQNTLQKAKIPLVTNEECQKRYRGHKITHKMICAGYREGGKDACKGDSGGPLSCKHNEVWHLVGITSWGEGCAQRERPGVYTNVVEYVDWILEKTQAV
T5 sequence (P03951 19-387 partner limits assumed): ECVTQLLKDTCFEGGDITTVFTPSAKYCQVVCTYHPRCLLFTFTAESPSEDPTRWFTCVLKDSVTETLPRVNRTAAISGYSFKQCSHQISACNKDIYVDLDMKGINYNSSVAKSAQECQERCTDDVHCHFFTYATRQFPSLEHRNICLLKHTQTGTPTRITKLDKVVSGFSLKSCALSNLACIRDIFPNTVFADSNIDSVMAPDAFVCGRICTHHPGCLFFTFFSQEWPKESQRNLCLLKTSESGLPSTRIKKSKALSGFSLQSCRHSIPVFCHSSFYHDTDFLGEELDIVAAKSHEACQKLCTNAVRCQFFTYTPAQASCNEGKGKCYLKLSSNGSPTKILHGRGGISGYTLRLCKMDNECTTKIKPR
Protocol: as §1

Human trypsin = target: T6, Human trypsin (Homo sapiens, UniProt P07477); assay: Trypsin competitive inhibition assay; assay type: biochemical
T6 construct: purchased Sigma-Aldrich; host or cells: purified from human tissue
Protocol: as §1

Rec. human matriptase = target: T7, Rec. human matriptase (Homo sapiens, UniProt Q9Y5Y6); assay: Matriptase inhibition assay; assay type: biochemical
T7 construct: purchased R&D Systems
T7 sequence (Q9Y5Y6 615-855 limits assumed): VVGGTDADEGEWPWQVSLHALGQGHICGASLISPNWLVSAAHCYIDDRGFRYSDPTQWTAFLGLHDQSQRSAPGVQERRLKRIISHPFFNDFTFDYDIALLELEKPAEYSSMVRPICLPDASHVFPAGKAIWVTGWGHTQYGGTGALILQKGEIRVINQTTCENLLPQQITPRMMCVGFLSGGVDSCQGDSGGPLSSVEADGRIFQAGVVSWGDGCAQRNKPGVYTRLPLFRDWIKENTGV
Protocol: as §1

Rec. human tPA = target: T8, Rec. human tPA (Homo sapiens, UniProt P00750); assay: tPA inhibition assay; assay type: biochemical
T8 construct: made in house; host or cells: Expi293 cells
T8 sequence (P00750 36-562): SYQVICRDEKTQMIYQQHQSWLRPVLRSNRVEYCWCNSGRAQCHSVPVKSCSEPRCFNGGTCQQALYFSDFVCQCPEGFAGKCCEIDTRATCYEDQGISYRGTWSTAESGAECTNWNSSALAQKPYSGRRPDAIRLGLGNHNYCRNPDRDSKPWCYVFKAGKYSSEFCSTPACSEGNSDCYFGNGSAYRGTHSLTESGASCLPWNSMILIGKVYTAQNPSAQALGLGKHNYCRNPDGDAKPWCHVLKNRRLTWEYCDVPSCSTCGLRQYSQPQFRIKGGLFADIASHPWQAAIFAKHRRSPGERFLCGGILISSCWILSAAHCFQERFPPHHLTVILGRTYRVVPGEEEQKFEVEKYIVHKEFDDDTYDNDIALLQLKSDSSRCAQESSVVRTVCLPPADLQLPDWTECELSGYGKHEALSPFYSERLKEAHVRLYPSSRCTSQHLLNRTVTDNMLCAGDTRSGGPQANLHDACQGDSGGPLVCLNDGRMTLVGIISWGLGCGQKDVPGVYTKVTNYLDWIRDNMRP
Protocol: as §1

Rec. human uPA = target: T9, Rec. human uPA (Homo sapiens, UniProt P00749); assay: uPA inhibition assay; assay type: biochemical
T9 construct: made in house; host or cells: Expi293 cells
Protocol: as §1

Human thrombin = target: T10, Human thrombin (Homo sapiens, UniProt P00734); assay: Thrombin inhibition assay; assay type: biochemical
T10 construct: Human β-FXIIa was obtained from Molecular Innovations, together with human FXa, human FXIa, human α-thrombin, and human plasma kallikrein; purchased Molecular Innovations; host or cells: purified from human plasma
Protocol: as §1

Human plasmin = target: T11, Human plasmin (Homo sapiens, UniProt P00747); assay: Plasmin inhibition assay; assay type: biochemical
T11 construct: Human cationic trypsin and human plasmin were obtained from Sigma-Aldrich, and recombinant human matriptase was sourced from R&D Systems; purchased Sigma-Aldrich; host or cells: purified from human plasma
T11 sequence (P00747 581-810 limits assumed): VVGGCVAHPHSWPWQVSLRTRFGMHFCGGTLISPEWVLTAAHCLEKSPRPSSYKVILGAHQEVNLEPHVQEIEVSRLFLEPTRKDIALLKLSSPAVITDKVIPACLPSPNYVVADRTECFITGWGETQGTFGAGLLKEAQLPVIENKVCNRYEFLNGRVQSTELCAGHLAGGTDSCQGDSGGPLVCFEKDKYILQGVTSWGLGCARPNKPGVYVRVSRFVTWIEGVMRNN
T11 sequence (P00747 97-580 partner limits assumed): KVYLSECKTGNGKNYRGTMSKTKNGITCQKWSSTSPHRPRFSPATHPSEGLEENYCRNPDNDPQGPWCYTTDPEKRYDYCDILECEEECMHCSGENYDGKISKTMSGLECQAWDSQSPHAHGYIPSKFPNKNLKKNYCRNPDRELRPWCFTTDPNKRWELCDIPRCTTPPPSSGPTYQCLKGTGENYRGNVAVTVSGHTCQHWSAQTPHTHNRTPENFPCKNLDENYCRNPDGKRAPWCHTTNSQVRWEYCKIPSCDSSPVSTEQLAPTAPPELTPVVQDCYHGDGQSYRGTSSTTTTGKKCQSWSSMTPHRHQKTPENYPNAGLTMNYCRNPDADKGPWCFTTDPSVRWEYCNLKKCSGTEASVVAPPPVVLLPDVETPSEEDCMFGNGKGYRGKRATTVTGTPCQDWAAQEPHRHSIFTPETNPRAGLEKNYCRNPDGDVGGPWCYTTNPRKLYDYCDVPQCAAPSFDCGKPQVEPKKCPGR
Protocol: as §1

Human plasma kallikrein = target: T12, Human plasma kallikrein (Homo sapiens, UniProt P03952); assay: Plasma kallikrein inhibition assay; assay type: biochemical
T12 construct: Human β-FXIIa was obtained from Molecular Innovations, together with human FXa, human FXIa, human α-thrombin, and human plasma kallikrein; purchased Molecular Innovations; host or cells: purified from human plasma
T12 sequence (P03952 391-638 limits assumed): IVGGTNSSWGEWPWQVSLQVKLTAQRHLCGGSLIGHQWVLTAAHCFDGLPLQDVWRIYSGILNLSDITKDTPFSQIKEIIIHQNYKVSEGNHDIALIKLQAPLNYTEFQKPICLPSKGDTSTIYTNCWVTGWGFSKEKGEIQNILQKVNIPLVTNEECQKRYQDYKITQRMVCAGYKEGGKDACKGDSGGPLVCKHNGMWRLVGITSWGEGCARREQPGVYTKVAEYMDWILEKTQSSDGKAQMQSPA
T12 sequence (P03952 20-390 partner limits assumed): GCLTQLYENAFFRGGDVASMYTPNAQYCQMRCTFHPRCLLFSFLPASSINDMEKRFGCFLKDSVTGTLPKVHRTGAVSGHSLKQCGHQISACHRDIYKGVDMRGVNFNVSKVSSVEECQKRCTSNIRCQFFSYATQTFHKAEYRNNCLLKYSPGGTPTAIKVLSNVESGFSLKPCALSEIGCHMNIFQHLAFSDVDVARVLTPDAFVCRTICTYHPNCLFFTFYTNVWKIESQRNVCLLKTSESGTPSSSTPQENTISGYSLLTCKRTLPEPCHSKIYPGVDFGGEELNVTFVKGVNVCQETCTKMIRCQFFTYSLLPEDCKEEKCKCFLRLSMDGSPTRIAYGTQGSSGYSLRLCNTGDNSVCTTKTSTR
Protocol: as §1

Compound | resistance to serum proteases (in words) (Stability in human serum; human serum, 37° C., up to 24 h) | Kd (bovine trypsin) | Ki (Human β-FXIIa) | Kd [1] | IC50 (Human FXa) | inhibition at 5 µM (Human FXa; read-out: percent inhibition FXa) | IC50 (Human FXIa) | inhibition at 5 µM (Human FXIa; read-out: percent inhibition FXIa) | Ki (Human trypsin) | Ki (Rec. human matriptase) | IC50 (Rec. human tPA) | inhibition at 5 µM (Rec. human tPA; read-out: percent inhibition tPA) | IC50 (Rec. human uPA) | inhibition at 5 µM (Rec. human uPA; read-out: percent inhibition uPA) | IC50 (Human thrombin) | inhibition at 5 µM (Human thrombin; read-out: percent inhibition Thrombin) | Ki (Human plasmin) | IC50 (Human plasma kallikrein) | inhibition at 5 µM (Human plasma kallikrein; read-out: percent inhibition Plasma kallikrein) | time to degradation in human serum (Stability in human serum)
CC[C@H](C)[C@H](NC(=O)CNC(=O)CNC(=O)[C@@H](N)CC(=O)O)C(=O)N[C@H]1CSSC[C@@H]2NC(=O)[C@H](C)NC(=O)CNC(=O)[C@@H]3CCCN3C(=O)[C@@H]3CSSC[C@@H](C(=O)NCC(=O)N[C@@H](CO)C(=O)NCC(=O)N[C@@H](Cc4ccc(O)cc4)C(=O)O)NC(=O)[C@H](Cc4ccccc4)NC(=O)[C@H](CCCNC(=N)N)NC(=O)[C@H]([C@@H](C)O)NC(=O)[C@H](C)NC(=O)[C@H](CCCNC(=N)N)NC(=O)[C@H](CSSC[C@H](NC(=O)[C@H](CC(C)C)NC(=O)[C@H](CCCNC(=N)N)NC(=O)CNC(=O)[C@H]([C@@H](C)CC)NC(=O)[C@H](CCCNC(=N)N)NC(=O)[C@@H]4CCCN4C1=O)C(=O)N[C@@H](CCCNC(=N)N)C(=O)N[C@@H](CCCNC(=N)N)C(=O)N[C@@H](CC(=O)O)C(=O)N[C@@H](CO)C(=O)N[C@@H](CC(=O)O)C(=O)N3)NC(=O)[C@H]([C@@H](C)CC)NC2=O [MCoFx1 acyclic] (H-DGGICPRIGRLCRRDSDCPGACICRATRFCGSGY-OH; disulfide 5-22, 12-24, 18-30) | highly resistant to serum proteases | 59.6 nM | 0.73 ± 0.2 nM | 1.89 ± 0.04 nM |  |  |  |  |  |  |  |  |  |  |  |  |  |  |  | 
CC[C@H](C)[C@@H]1NC(=O)[C@@H]2CSSC[C@@H]3NC(=O)[C@H](C(C)C)NC(=O)CNC(=O)CNC(=O)[C@H](CC(=O)O)NC(=O)[C@H](CO)NC(=O)CNC(=O)[C@H](CO)NC(=O)CNC(=O)[C@@H]4CSSC[C@H](NC(=O)[C@H](CC(=O)O)NC(=O)[C@H](CO)NC(=O)[C@H](CC(=O)O)NC(=O)[C@H](CCCNC(=N)N)NC(=O)[C@H](CCCNC(=N)N)NC(=O)[C@H](CSSC[C@H](NC1=O)C(=O)N[C@@H](CCCNC(=N)N)C(=O)N[C@@H](C)C(=O)N[C@@H]([C@@H](C)O)C(=O)N[C@@H](CCCNC(=N)N)C(=O)N[C@@H](Cc1ccccc1)C(=O)N4)NC(=O)[C@H](CCCCN)NC(=O)[C@H](CCCCN)NC(=O)[C@H](CC(C)C)NC(=O)[C@H]([C@@H](C)CC)NC(=O)[C@H](CCCCN)NC(=O)[C@@H]1CCCN1C3=O)C(=O)N1CCC[C@H]1C(=O)NCC(=O)N[C@@H](C)C(=O)N2 [cMCoTI-fxL5] (cyclo(ACICRATRFCGSGSDGGVCPKILKKCRRDSDCPG); disulfide 2-19, 4-26, 10-32) |  |  | 66 nM |  | > 5000 nM | 0% | > 5000 nM | 1% | 0.08 nM | 17 nM | > 5000 nM | 1% | > 5000 nM | 0% | > 5000 nM | 3% | 31 nM | > 5000 nM | 0% | 
EAIYAAPFAKKK [reference compound] |  |  |  |  |  |  |  |  |  |  |  |  |  |  |  |  |  |  |  | ≤ 1 h
